The results in this text go back to patent publication US8071605B2, “Piperidine compounds for use in the treatment of bacterial infections” (AstraZeneca AB, priority 2008, dated 2011).

This experiment has as its target S. aureus GyrB ATPase (Staphylococcus aureus, UniProt P0A0K8). Description: S. aureus GyrB ATPase inhibition (ammonium molybdate/malachite green phosphate detection). It counts as biochemical. Particulars: compound concentration of 1 μM (unless otherwise noted). The procedure:
E. coli GyrB ATPase Inhibition Activity: Compounds can be tested for inhibition of E. coli GyrB ATPase activity using an ammonium molybdate/malachite green-based phosphate detection assay (Lanzetta, P. A., L. J. Alvarez, P. S. Reinach, and O. A. Candia, 1979, 100: 95-97). Assays can be performed in multiwell plates in 30 μl reactions containing: 50 mM Hepes buffer pH 7.5, 75 mM ammonium acetate, 8.0 mM magnesium chloride, 0.5 mM ethylenediaminetetraacetic acid, 5% glycerol, 1 mM 1,4-Dithio-DL-threitol, 200 nM bovine serum albumin, 1.6 μg/ml sheared salmon sperm DNA, 400 pM E. coli GyrA, 400 pM E. coli GyrB, 250 μM ATP, and compound in dimethylsulfoxide. Reactions can be quenched with 30 μl of ammonium molybdate/malachite green detection reagent containing 1.2 mM malachite green hydrochloride, 8.5 mM ammonium molybdate tetrahydrate, and 1 M hydrochloric acid. Plates can be read in an absorbance plate reader at 650 nm and percent inhibition values are calculated using dimethylsulfoxide (2%)-containing reactions as 0% inhibition and EDTA-containing (2.4 μM) reactions as 100% inhibition controls. An IC50 measurement of compound potency for each compound can be determined from reactions performed in the presence of 10 different compound concentrations. E. coli Topoisomerase IV ATPase Inhibition Activity: Compounds can be tested for inhibition of E. coli topoisomerase IV ATPase activity as described above for E. coli GyrB except the 30 μl reactions contained the following: 20 mM TRIS buffer pH 8, 50 mM ammonium acetate, 8 mM magnesium chloride, 5% glycerol, 5 mM 1,4-Dithio-DL-threitol, 0.005% Brij-35, 5 μg/ml sheared salmon sperm DNA, 500 pM E. coli ParC, 500 pM E. coli ParE, 160 μM ATP, and compound in dimethylsulfoxide. An IC50 measurement of compound potency for each compound can be determined from reactions performed in the presence of 10 different compound concentrations. S. aureus GyrB ATPase Inhibition Activity: Compounds may be tested for inhibition of S. aureus GyrB ATPase activity using an ammonium molybdate/malachite green-based phosphate detection assay (Lanzetta, P. A., L. J. Alvarez, P. S. Reinach, and O. A. Candia, 1979, 100: 95-97). Assays can be performed in multiwell plates in 30 μl reactions containing: 50 mM Hepes buffer pH 7.5, 75 mM ammonium acetate, 8.0 mM magnesium chloride, 0.5 mM ethylenediaminetetraacetic acid, 5% glycerol, 1.0 mM 1,4-Dithio-DL-threitol, 200 nM bovine serum albumin, 1.0 μg/ml sheared salmon sperm DNA, 250 pM E. coli GyrA, 250 pM S. aureus GyrB, 250 μM ATP, and compound in dimethylsulfoxide. Reactions can be quenched with 30 μl of ammonium molybdate/malachite green detection reagent containing 1.2 mM malachite green hydrochloride, 8.5 mM ammonium molybdate tetrahydrate, and 1 M hydrochloric acid. Plates can be read in an absorbance plate reader at 650 nm and percent inhibition values can be calculated using dimethylsulfoxide (2%)-containing reactions as 0% inhibition and EDTA-containing (2.4 μM) reactions as 100% inhibition controls. An IC50 measurement of compound potency for each compound can be determined from reactions performed in the presence of 10 different compound concentrations.
Compounds of the invention were tested in an assay substantially similar to the assay described above for measuring the inhibition of S. aureus GyrB ATPase. Percent inhibition of S. aureus GyrB ATPase at a compound concentration of 1 μM (unless otherwise noted) is disclosed in the following table: […]

S. aureus GyrB ATPase, sequence (P0AES4 whole entry): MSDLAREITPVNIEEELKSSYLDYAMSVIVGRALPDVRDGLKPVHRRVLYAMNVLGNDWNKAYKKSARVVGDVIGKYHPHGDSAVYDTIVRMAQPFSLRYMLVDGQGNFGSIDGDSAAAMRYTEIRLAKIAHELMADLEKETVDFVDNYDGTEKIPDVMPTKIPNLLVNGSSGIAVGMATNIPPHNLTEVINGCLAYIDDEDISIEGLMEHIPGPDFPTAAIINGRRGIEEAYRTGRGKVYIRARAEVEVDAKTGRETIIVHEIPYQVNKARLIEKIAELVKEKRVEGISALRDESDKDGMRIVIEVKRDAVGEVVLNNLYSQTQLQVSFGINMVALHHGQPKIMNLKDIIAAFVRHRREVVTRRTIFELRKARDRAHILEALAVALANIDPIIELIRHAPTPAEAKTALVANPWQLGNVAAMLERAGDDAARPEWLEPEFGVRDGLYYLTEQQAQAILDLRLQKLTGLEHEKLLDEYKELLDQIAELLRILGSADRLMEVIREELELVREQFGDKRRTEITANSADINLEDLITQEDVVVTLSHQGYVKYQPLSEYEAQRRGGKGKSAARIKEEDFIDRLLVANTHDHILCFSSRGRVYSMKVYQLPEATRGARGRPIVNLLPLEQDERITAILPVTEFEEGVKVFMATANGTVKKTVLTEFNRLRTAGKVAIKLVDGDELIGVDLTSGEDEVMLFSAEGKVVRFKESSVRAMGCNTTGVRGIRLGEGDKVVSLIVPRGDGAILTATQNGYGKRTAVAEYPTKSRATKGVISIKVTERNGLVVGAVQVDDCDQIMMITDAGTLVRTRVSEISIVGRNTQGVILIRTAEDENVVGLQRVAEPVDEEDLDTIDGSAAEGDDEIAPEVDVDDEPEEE
S. aureus GyrB ATPase, sequence (P0A0K8 whole entry): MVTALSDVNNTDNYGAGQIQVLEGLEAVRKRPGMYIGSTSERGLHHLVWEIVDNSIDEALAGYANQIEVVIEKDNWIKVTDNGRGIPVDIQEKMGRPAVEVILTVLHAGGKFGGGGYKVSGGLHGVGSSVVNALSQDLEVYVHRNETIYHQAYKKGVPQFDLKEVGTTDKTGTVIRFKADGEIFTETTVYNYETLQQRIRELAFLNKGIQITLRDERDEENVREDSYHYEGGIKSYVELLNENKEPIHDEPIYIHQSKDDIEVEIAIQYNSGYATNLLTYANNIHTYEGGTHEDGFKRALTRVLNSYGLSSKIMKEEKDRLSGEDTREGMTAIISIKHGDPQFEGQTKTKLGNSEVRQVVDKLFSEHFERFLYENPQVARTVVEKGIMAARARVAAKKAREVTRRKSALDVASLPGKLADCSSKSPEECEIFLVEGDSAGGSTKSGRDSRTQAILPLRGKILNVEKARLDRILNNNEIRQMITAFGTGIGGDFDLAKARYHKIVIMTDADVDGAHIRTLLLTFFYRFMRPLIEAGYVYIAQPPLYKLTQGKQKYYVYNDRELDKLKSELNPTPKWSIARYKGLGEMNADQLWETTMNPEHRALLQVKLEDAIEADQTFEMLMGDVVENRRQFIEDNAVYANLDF

`Cc1[nH]c(C(=O)N[C@@H]2CCN(c3nc(-c4cnc(N5CCNCC5)cn4)c(C(=O)O)s3)C[C@@H]2C)c(Cl)c1Cl` [Example 168, 2-[(3S,4R)-4-{[(3,4-dichloro-5-methyl-1H-pyrrol-2-yl)carbonyl]amino}-3-methylpiperidin-1-yl]-4-[5-(piperazin-1-yl)pyrazin-2-yl]-1,3-thiazole-5-carboxylic acid]: the inhibition (in general, the relative decrease from the control value, in per cent) at 1 µM stood at 102%.
For the molecule `CO[C@H]1CN(c2nc(-c3cnc(N4CCN(CC5CCCCC5)CC4)cn3)c(C(=O)O)s2)CC[C@H]1NC(=O)c1[nH]c(C)c(Cl)c1Cl` [Example 136], the inhibition at 1 µM is 104%.
Next, `CO[C@H]1CN(c2nc(-c3cnc(OCCC4CCN(C)CC4)cn3)c(C(=O)O)s2)CC[C@H]1NC(=O)c1[nH]c(C)c(Cl)c1Cl` [Example 65]: 107%; `Cc1[nH]c(C(=O)N[C@@H]2CCN(c3nc(-c4cnc(N5CCN(CC(C)C)CC5)cn4)c(C(=O)O)s3)C[C@@H]2C)c(Cl)c1Cl` [Example 176, 2-[(3S,4R)-4-{[(3,4-dichloro-5-methyl-1H-pyrrol-2-yl)carbonyl]amino}-3-methylpiperidin-1-yl]-4-{5-[4-(2-methylpropyl)piperazin-1-yl]pyrazin-2-yl}-1,3-thiazole-5-carboxylic acid]: 108%.
With `CO[C@H]1CN(c2nc(-c3cnc(N4CCNCC4)cn3)c(C(=O)O)s2)CC[C@H]1NC(=O)c1[nH]c(C)c(Cl)c1Cl` [Example 126], the inhibition at 1 µM is 108%.
As for `CCO[C@H]1CN(c2nc(-c3cnc(N4CCN(CC5CCCCC5)CC4)cn3)c(C(=O)O)s2)CC[C@H]1NC(=O)c1[nH]c(C)c(Cl)c1Cl` [Example 98], the figure is 116%; as for `CCCO[C@H]1CN(c2nc(-c3ncnn3C)c(C(=O)O)s2)CC[C@H]1NC(=O)c1[nH]c(C)c(Cl)c1Cl` [Example 215], 106%.
Next, `Cc1[nH]c(C(=O)N[C@@H]2CCN(c3nc(-c4cnc(NCCN5CCNC5=O)cn4)c(C(=O)O)s3)C[C@@H]2C)c(Cl)c1Cl` [Example 173, 2-[(3S,4R)-4-{[(3,4-dichloro-5-methyl-1H-pyrrol-2-yl)carbonyl]amino}-3-methylpiperidin-1-yl]-4-(5-{[2-(2-oxoimidazolidin-1-yl)ethyl]amino}pyrazin-2-yl)-1,3-thiazole-5-carboxylic acid]: 104%; `CO[C@H]1CN(c2nc(-c3nccc(N4CCN(C)CC4)n3)c(C(=O)O)s2)CC[C@H]1NC(=O)c1[nH]c(C)c(Cl)c1Cl` [Example 191, 2-[(3S,4R)-4-{[(3,4-dichloro-5-methyl-1H-pyrrol-2-yl)carbonyl]amino}-3-methoxypiperidin-1-yl]-4-[4-(4-methylpiperazin-1-yl)pyrimidin-2-yl]-1,3-thiazole-5-carboxylic acid]: 102%.
For `CCO[C@H]1CN(c2nc(-c3cnc(NCCOC)cn3)c(C(=O)O)s2)CC[C@H]1NC(=O)c1[nH]c(C)c(Cl)c1Cl` [Example 90], the inhibition at 1 µM was determined as 103%.
Next, `CCCO[C@H]1CN(c2nc(-c3nccn3CCOC)c(C(=O)O)s2)CC[C@H]1NC(=O)c1cc(Cl)c(C)[nH]1` [Example 201, 2-[(3S,4R)-4-{[(4-chloro-5-methyl-1H-pyrrol-2-yl)carbonyl]amino}-3-propoxypiperidin-1-yl]-4-[1-(2-methoxyethyl)-1H-imidazol-2-yl]-1,3-thiazole-5-carboxylic acid]: 105%.
As for `COCCNc1cnc(-c2nc(N3CC[C@@H](NC(=O)c4[nH]c(C)c(Cl)c4Cl)[C@@H](C)C3)sc2C(=O)O)cn1` [Example 170, 2-[(3S,4R)-4-{[(3,4-dichloro-5-methyl-1H-pyrrol-2-yl)carbonyl]amino}-3-methylpiperidin-1-yl]-4-{5-[(2-methoxyethyl)amino]pyrazin-2-yl}-1,3-thiazole-5-carboxylic acid], the figure is 119%; as for `CO[C@H]1CN(c2nc(-c3cnc(NCCN(C)C)cn3)c(C(=O)O)s2)CC[C@H]1NC(=O)c1[nH]c(C)c(Cl)c1Cl` [Example 132], 103%.
Next, `CCO[C@H]1CN(c2nc(-c3ncnn3CCOC)c(C(=O)O)s2)CC[C@H]1NC(=O)c1[nH]c(C)c(Cl)c1C#N` [Example 13]: 99%; `Cc1[nH]c(C(=O)N[C@@H]2CCN(c3nc(-c4ncnn4C)c(C(=O)O)s3)C[C@@H]2C)cc1Cl` [Example 19]: 112%.
Consider `C=CCO[C@H]1CN(c2nc(-c3ncccc3F)c(C(=O)O)s2)CC[C@H]1NC(=O)c1[nH]c(C)c(Cl)c1C#N` [Example 6], for which the inhibition at 1 µM was determined as 99%.
Regarding `CCO[C@H]1CN(c2nc(-c3cnc(N4CCN(CC)CC4)cn3)c(C(=O)O)s2)CC[C@H]1NC(=O)c1[nH]c(C)c(Cl)c1Cl` [Example 100], the inhibition at 1 µM was found to be 102%.
Next, `Cc1[nH]c(C(=O)N[C@@H]2CCN(c3nc(-c4cnc(N5CCCCC5)cn4)c(C(=O)O)s3)C[C@@H]2C)c(Cl)c1Cl` [Example 165, 2-[(3S,4R)-4-{[(3,4-dichloro-5-methyl-1H-pyrrol-2-yl)carbonyl]amino}-3-methylpiperidin-1-yl]-4-[5-(piperidin-1-yl)pyrazin-2-yl]-1,3-thiazole-5-carboxylic acid]: 107%.
Next, `CO[C@H]1CN(c2nc(-c3cnc(NCCN4CCNC4=O)cn3)c(C(=O)O)s2)CC[C@H]1NC(=O)c1[nH]c(C)c(Cl)c1Cl` [Example 131]: 108%.
Regarding `CO[C@H]1CN(c2nc(-c3cnc(N4CCCCC4)cn3)c(C(=O)O)s2)CC[C@H]1NC(=O)c1[nH]c(C)c(Cl)c1Cl` [Example 124], the inhibition at 1 µM was 112%.
As for `CCO[C@H]1CN(c2nc(-c3ncccc3F)c(C(=O)O)s2)CC[C@H]1NC(=O)c1cc(Cl)c(C)[nH]1` [Example 17], the figure is 106%.
Take `CCO[C@H]1CN(c2nc(-c3cnc(NCCN4CCOCC4)cn3)c(C(=O)O)s2)CC[C@H]1NC(=O)c1[nH]c(C)c(Cl)c1Cl` [Example 91]: the inhibition at 1 µM is 105%.
Next, `CO[C@H]1CN(c2nc(-c3cnc(N4CCN(CC5CCCO5)CC4)cn3)c(C(=O)O)s2)CC[C@H]1NC(=O)c1[nH]c(C)c(Cl)c1Cl` (stereo partly shown) [Example 142]: 103%; `CCC(CC)N1CCN(c2cnc(-c3nc(N4CC[C@@H](NC(=O)c5[nH]c(C)c(Cl)c5Cl)[C@@H](C)C4)sc3C(=O)O)cn2)CC1` [Example 179, 2-[(3S,4R)-4-{[(3,4-dichloro-5-methyl-1H-pyrrol-2-yl)carbonyl]amino}-3-methylpiperidin-1-yl]-4-{5-[4-(pentan-3-yl)piperazin-1-yl]pyrazin-2-yl}-1,3-thiazole-5-carboxylic acid]: 104%.
Next, `CO[C@H]1CN(c2nc(-c3cnc(N4CCN(CCO)CC4)cn3)c(C(=O)O)s2)CC[C@H]1NC(=O)c1[nH]c(C)c(Cl)c1Cl` [Example 141]: 103%.
As for `CCCO[C@H]1CN(c2nc(-c3ncnn3C)c(C(=O)O)s2)CC[C@H]1NC(=O)c1cc(Cl)c(C)[nH]1` [Example 200, 2-[(3S,4R)-4-{[(4-chloro-5-methyl-1H-pyrrol-2-yl)carbonyl]amino}-3-propoxypiperidin-1-yl]-4-(1-methyl-1H-1,2,4-triazol-5-yl)-1,3-thiazole-5-carboxylic acid], the figure is 106%; as for `CO[C@H]1CN(c2nc(-c3cnc(NCCN4CCOCC4)cn3)c(C(=O)O)s2)CC[C@H]1NC(=O)c1[nH]c(C)c(Cl)c1Cl` [Example 130], 107%; as for `C=CCO[C@H]1CN(c2nc(-c3nccn3CCOC)c(C(=O)O)s2)CC[C@H]1NC(=O)c1[nH]c(C)c(Cl)c1Cl` [Example 2], 103%.
